Key:
[1] = tested on: mammary gland tissue; test: Animal experiment: E2-induced mammary gland tissue dysplasia and invasion in scid mice; format: in vivo; conditions: 25 days
Method: Ten-week-old Scid mice were intraperitoneally administered with 6 μg of E2 per day for 25 days, and were simultaneously intraperitoneally administered with 6 μg of Equol per day and/or were intraperitoneally administered with 0.5 mg (low) or 5 mg (high) of GABA per day. The fourth mammary gland was sampled 24 hours after the final administration, and photographs are shown of tissue observation by hematoxylin and eosin (H&E) staining (upper row) and Elastica van Gieson (EVG) staining (lower row).
This mouse model system that develops early stage breast cancer is an experimental system developed by the present inventors, and a system in which scid mice, which are a mouse strain with reduced DNA repair ability, are used to be administered estradiol (E2) intraperitoneally for […] to induce mammary gland tissue dysplasia. […] The present invention also uses this experimental system to evaluate the effects of GABA or the combined use of GABA and equol.
Ten-week-old scid mice were intraperitoneally administered PBS as a negative control group, 6 μg/day of E2 as a positive control group, 6 μg of E2+6 μg/day of equol (Eq) in experimental group 1, 6 μg of E2+0.5 mg/day of GABA in experimental group 2, 6 μg of E2+5 mg/day of GABA in experimental group 3, 6 μg of E 2+6 μg of Eq+0.5 mg of GABA in experimental group 4, and 6 μg of E 2+6 μg of Eq+5 mg of GABA in experimental group 5, with six mice in each group, every morning for 25 days. 24 hours after the final administration, the fourth mammary gland was sampled, and the tissue was observed by hematoxylin and eosin (H&E) staining and Elastica van Gieson (EVG) staining.
In addition, the frequency of occurrence of dysplasia in sections of the mammary gland tissue was evaluated.
Mouse (female): C. B-17/Icr-scid/scid Jel was purchased from CLEA Japan.
The E2 used was E2758 manufactured by SIGMA, the Equol (Eq) used was SML2147 manufactured by SIGMA, and the GABA used was A5835 manufactured by SIGMA.

[2] = tested on: mammary gland tissue; conditions: equol intraperitoneally, with estradiol administered (Non-Patent Literature 1); cited from earlier work
[3] = tested on: MCF7 (ATCC HTB-22) cells; test: Cell test: E2-induced DNA double-strand break signals in MCF7 cells (P-Histone H2AX immunostaining); format: cell-based; conditions: 4 hours
Method: After MCF 7 (ATCC HTB-22) cells were cultured, and the medium was removed, 200 μL of PBS adjusted to E2-free, 10 nM of E2, or 10 nM of E2+0.3 μg/mL to 1.1 μg/mL of GABA was added to each well, and the cells were incubated at 37° C. and 5% of CO2 for 4 hours. The cells were visualized by adding a primary histone antibody, and the DNA double-strand break signals per cell were measured by observation under a microscope.
The cultured cells used were MCF7 (ATCC HTB-22). MCF7 cells were cultured for 2 days to 3 days in phenol red-free RPMI 1640 medium containing 10% of fetal bovine serum and 1 nM of E2.
The cells were passaged into phenol red-free RPMI medium containing 10% of charcoal-stripped serum (Charcoal-Stripped FBS, Thermo Fisher) and 1 nM of E 2, and seeded into an 8-well plate (SCS-N28 MAS-Coat, Matsunami) at 400 μL/well. After 1 day to 2 days, the medium on the 8-well plate was removed and replaced with serum-free, phenol red-free RPMI medium, and the cells were starved by culturing for 1 day to align the cell cycle to the G1 phase. […]
The cells were observed under a microscope, the DNA double-strand break signals per cell were measured, and statistical analysis was performed using the Mann-Whitney U-test, with p<0.05 being considered to indicate a significant difference. […]
For each experiment section, DNA double-strand break signals were counted in 100 cells.

[4] = experimental groups 1 to 5: Eq or GABA added to 6 μg/day E2 i.p.

| invasion in mammary gland tissue sections (H&E and EVG staining) ([1]; positive control: E2 only, 6 μg/day i.p.) | Structure (SMILES) | mammary gland tissue dysplasia [2] | frequency of occurrence of dysplasia (average of E2-only positive control taken as 100%) ([1]; experimental group 1: 6 μg E2 + 6 μg/day equol i.p., negative control 16%) | invasion in mammary gland tissue sections (H&E and EVG staining) [1, 4] | DNA damage (DNA double-strand break signals per cell) ([3]; 10 nM E2 + 1.1 μg/mL GABA, Mann-Whitney U-test, p<0.05) | number of DNA damages (DNA double-strand break signals per cell) ([3]; 10 nM E2 + 0.3 to 1.1 μg/mL GABA) | frequency of occurrence of dysplasia (average of E2-only positive control taken as 100%) ([1]; experimental group 2: 6 μg E2 + 0.5 mg/day GABA i.p.) [%] | frequency of occurrence of dysplasia (average of E2-only positive control taken as 100%) ([1]; experimental group 3: 6 μg E2 + 5 mg/day GABA i.p.) [%] |
| --- | --- | --- | --- | --- | --- | --- | --- | --- |
| showed invasion | C[C@]12CC[C@@H]3c4ccc(O)cc4CC[C@H]3[C@@H]1CC[C@@H]2O [E2, estradiol, reference compound] | – | – | – | – | – | – | – |
| – | Oc1ccc([C@H]2COc3cc(O)ccc3C2)cc1 [Eq, equol, reference compound] | mammary gland tissue dysplasia was inhibited | approximately 58% | no invasion was observed | – | – | – | – |
| – | NCCCC(=O)O [GABA, γ-amino butyric acid] | – | – | no invasion was observed | significantly reduced DNA damage | tended to reduce the number of DNA damages | 44 | 37 |

Reference: patent US20260174680A1, “MAMMARY GLAND TISSUE HEALTH MAINTENANCE AGENT HAVING GABA AS ACTIVE INGREDIENT” (SANWA SHURUI CO., LTD., priority 2022, published 2026)
